This note sets out measurements from patent US7220822B2, “CD28 mimetics for blocking T cell mediated immune reactions” (The Ohio State University, priority 2000, dated 2007).

One assay has as its target T1, CD80-Ig (Homo sapiens, UniProt P33681).
T1 construct: extracellular domain of CD80 fused with the constant region of mouse IgG1 heavy chain
Kind of assay: Direct kinetic analysis of CD28 peptide binding to immobilized CD80-Ig by surface plasmon resonance (BIACORE). The conditions noted are these: for maximum response units obtained for binding to CD80-Ig: SPR direct binding; for kd: direct binding; for kon: pH 7.4, direct binding, read-out: ka. The protocol: Binding experiments were performed by surface plasmon resonance (SPR) on an instrument sold under the trademark BIACORE™ from Pharmacia Biosensor (Uppasala, Sweden).
CD80-Ig (extracellular domain of CD80 fused with the constant region of mouse IgG1 heavy chain) at 35 μg/ml in 10 mM sodium acetate buffer, pH 4.2, was coupled to a research grade CM 5 sensor chip using a standard amine coupling procedure with the following modifications (38). To reduce the immobilization level of the ligand, the surface was activated for 3 (instead of 7) minutes with N-hydroxysuccinamide and […]. […] Following coupling, noncovalently bound ligand was removed by washing twice with 5 mM NaOH.
The analytes were also injected at the same concentration and injection times over an empty flow cell with nothing immobilized.
Data analysis was performed with BIAEVALUATION™ software version 2.1(Pharmacia Biosensor AB). […] Prior to kinetic analysis, data were adjusted to zero baseline level by subtracting the background responses obtained by injection of the analytes through a control flow cell with no ligand immobilized. First, the dissociation rate constant, kd, (units: s^−1) was determined, by fitting experimental data from the buffer flow part of the sensogram to the equation R(t)=R1*e^−kd*(t^0^−t^1^) (1) where t0 is the injection time, R1 is the response level at the start of dissociation time t1 and kd is the dissociation rate constant.
The kd value obtained was used as a constant during the analysis of the injection phase data. Binding data above the noise level was selected by converting the sensogram to a plot of the logarithm of the binding rate vs time (dR/dt vs. time). The ka was determined by nonlinear curve fitting of the following equation R(t)=Req*{1−e^−(k^a^*C+k^d^)*(t) (2) where R(t) is the response at time t, Req is the steady state response level, ka is the association rate constant (units: M^−1s^−1), kd is the dissociation rate constant and C is the concentration of the injected peptide analyte. An offset was added to account for the refractive index differences between the analyte and the running buffer.
After analyzing sensograms obtained from injections of increasing concentrations of peptide analytes or CD28-Ig, the experimental data was analyzed using the BIAsimulation software 2.1. A plot of the logarithm of (dR/dt) against time was calculated from the sensograms, and then the slopes at different concentrations were plotted against the concentrations of the peptide analyte. Different angles obtained of the linear lines represent the variation of affinities, which gives the association rate constant (ka) from the equation ln dR/dt=ln(kaCR max)−KaC+kd)t (4) where dR/dt is the rate of change of the SPR signal, C is the concentration of the analyte, Rmax is the maximum analyte binding capacity in RU and R is the SPR signal in RU at time t. The dissociation rate constant is obtained from the equation Kd=kd/ka (5)
For orientation: In SPR one partner is held on a chip, and binding of the other changes the refractive index at the surface.

For assay [1], the system named is CD4+ LNC bearing Vα4 Vβ8.2 TCR. Kind of assay: IL-2 ELISPOT of antigen-stimulated CD4+ lymph node cells in vitro. Type of assay: cell-based, mouse. On the set-up: frequency of IL-2 secreting cells (in words): dose or concentration left out as unconfirmed. The conditions noted are these: for number of IL-2 secreting NAc1-11 responders (in words): 75 μM and 100 μM peptide, p<0.05; for frequency of IL-2 secreting cells (in words): compared to untreated cells. The method, then: Augmentation of T cell proliferation following CD28 ligation is a result of its ability to increase the synthesis of IL-2. To determine whether the observed reduction in proliferation is reflected in the IL-2 secretion, the ELISPOT assay was performed.
(§1) Ninety-six well unifilter plates (Polyfiltronics, Rockland, Md.) were coated overnight at 4° C. with rat anti-mouse IL-2 (Clone JES6-1A12) (Pharmingen, Calif.) at 4 μg/ml. The plates were then washed 4× with sterile PBS and blocked with 1% BSA in DMEM for 2 h at room temperature. Subsequently, isolated single cell suspensions of CD4+ LNC (5×10^6 cells/ml) and splenocytes (10×10^6 cells/ml) were added with the antigens and CD28 peptides under the conditions as specified for the proliferation assays. After 24 h of culture in the incubator, the cells were removed by washing 3× with PBS and 4× with PBS containing Tween (1:2000) (PBST). Then biotinylated anti mouse-IL-2 (Clone JES6-5H4) (Pharmingen, Calif.) 2 μg/ml was added and incubated at 4° C. overnight. After washing 3× with PBST and 3× with PBS, goat anti-biotin antibody conjugated to alkaline phosphatase (Vector Laboratories Inc, Burlingame, Calif.) diluted to 1:1000 in PBST containing 1% BSA was added and incubated for 2 h at room temperature. The spots were visualized by adding BCIP/NBT phosphatase substrate (Kirkeguard & Perry Laboratories, Gaithesburg, Md.). Image analysis of ELISA spot assays was performed on a Series 1 Immunospot Image Analyzer (Autoimmun Diagnostika (US) Inc.) customized for analyzing ELISA spots to meet objective criteria for size, chromatic density, shape and color.

Assay [2] has as its system lymph node cells of MBP-primed mice. Kind of assay: IL-2 ELISPOT of draining lymph node cells from peptide-treated MBP-immunized mice. It is filed as in vivo, mouse. The conditions noted are these: mice treated on day 0 of immunization, ELISPOT on restimulation. The protocol: as §1
MBP reactive T cells that induce EAE are known to display a Th1 phenotype secreting the proinflammatory cytokines IL-2, […] and TNF-β (36. Kay, B. K., M. P. Williamson, and M. Sudol. 2000. Faseb J 14, no. 2:231). ELISPOT assay was used to assess in vitro cytokine production by draining lymph node cells and splenocytes upon restimulation from in vivo MBP-primed T cells. Mice were treated as described in Example 3, on day 0 of immunization.

Like-named read-outs stand apart in the source and are kept apart here. Square brackets hold non-standard residues; d marks the D form. Peptide text beside a SMILES is read from it.

T1 sequence (P33681 35-242 limits assumed, other chains not shown): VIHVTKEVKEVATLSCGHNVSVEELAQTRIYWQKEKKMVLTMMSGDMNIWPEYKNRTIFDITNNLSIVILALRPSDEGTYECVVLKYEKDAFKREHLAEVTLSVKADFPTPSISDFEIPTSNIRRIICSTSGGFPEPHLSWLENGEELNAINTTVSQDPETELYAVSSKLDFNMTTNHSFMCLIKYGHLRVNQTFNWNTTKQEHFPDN

With `CC[C@H](C)[C@H](NC(=O)[C@@H](NC(=O)CNC(=O)[C@H](CC(N)=O)NC(=O)[C@H](CO)NC(=O)[C@H](CCCNC(=N)N)NC(=O)[C@H](CCC(=O)O)NC(=O)[C@H](CC(N)=O)NC(=O)[C@H](CC(=O)O)NC(=O)[C@H](CC(C)C)NC(=O)[C@H](Cc1ccc(O)cc1)NC(=O)[C@@H]1CCCN1C(=O)[C@@H]1CCCN1C(=O)[C@@H]1CCCN1C(=O)[C@H](Cc1ccc(O)cc1)NC(=O)[C@H](CCSC)NC(=O)[C@H](Cc1ccccc1)NC(=O)[C@H](CCC(=O)O)NC(=O)[C@@H](NC(=O)[C@H](CCCCN)NC(C)=O)[C@@H](C)CC)[C@@H](C)O)C(N)=O` [EL CD28] (Ac-KIEFMYPPPYLDNERSNGTI-NH2), the “maximum response units obtained for binding to CD80-Ig” value on CD80-Ig was found to be 667.5 RU. Also, the kd on CD80-Ig (C 1.50E+03 nM) came out at 0.242 s⁻¹; on CD80-Ig (C 3.00E+03 nM), 0.214 s⁻¹; at CD80-Ig (C 3.75E+02 nM), 0.399 s⁻¹; at CD80-Ig (C 6.00E+03 nM), 0.273 s⁻¹; at CD80-Ig (C 7.50E+02 nM), 0.274 s⁻¹. Moreover, the kon came out at 115000 M⁻¹ s⁻¹ at CD80-Ig (C 1.50E+03 nM); 137000 M⁻¹ s⁻¹ on CD80-Ig (C 3.00E+03 nM); 246000 M⁻¹ s⁻¹ on CD80-Ig (C 3.75E+02 nM); 111000 M⁻¹ s⁻¹ at CD80-Ig (C 6.00E+03 nM); 110000 M⁻¹ s⁻¹ at CD80-Ig (C 7.50E+02 nM). Also, the “number of IL-2 secreting NAc1-11 responders (in words)” value in assay [1] was “Significant decrease”. Moreover, the “frequency of IL-2 secreting cells (in words)” value in assay [1] was “significantly reduced”. The “frequency of IL-2 secreting lymph node cells” value in assay [2] is reported as 2776+/−53.5.
Regarding `CC[C@@H](C)[C@@H](NC(C)=O)C(=O)N[C@@H](C(=O)NCC(=O)N[C@H](CC(N)=O)C(=O)N[C@H](CO)C(=O)N[C@H](CCCNC(=N)N)C(=O)N[C@H](CCC(=O)O)C(=O)N[C@H](CC(N)=O)C(=O)N[C@H](CC(=O)O)C(=O)N[C@H](CC(C)C)C(=O)N[C@H](Cc1ccc(O)cc1)C(=O)N1CCC[C@@H]1C(=O)N1CCC[C@@H]1C(=O)N1CCC[C@@H]1C(=O)N[C@H](Cc1ccc(O)cc1)C(=O)N[C@H](CCSC)C(=O)N[C@H](Cc1ccccc1)C(=O)N[C@H](CCC(=O)O)C(=O)N[C@@H](C(=O)N[C@H](CCCCN)C(N)=O)[C@H](C)CC)[C@H](C)O` [RI CD28] (Ac-[dI][dT]G[dN][dS][dR][dE][dN][dD][dL][dY][dP][dP][dP][dY][dM][dF][dE][dI][dK]-NH2), the “maximum response units obtained for binding to CD80-Ig” value on CD80-Ig stood at 444.2 RU. For the same compound, the kd on CD80-Ig (C 1.00E+03 nM) stood at 0.205 s⁻¹; on CD80-Ig (C 1.50E+03 nM), 0.183 s⁻¹; on CD80-Ig (C 3.00E+03 nM), 0.146 s⁻¹; at CD80-Ig (C 6.00E+03 nM), 0.228 s⁻¹. Also, the kon at CD80-Ig (C 1.00E+03 nM) was found to be 171000 M⁻¹ s⁻¹; on CD80-Ig (C 1.50E+03 nM) it was 141000 M⁻¹ s⁻¹; at CD80-Ig (C 3.00E+03 nM) it was 122000 M⁻¹ s⁻¹; at CD80-Ig (C 6.00E+03 nM) it was 112000 M⁻¹ s⁻¹. Besides, the “number of IL-2 secreting NAc1-11 responders (in words)” value in assay [1] is “Significant decrease”. Also, in assay [1], the “frequency of IL-2 secreting cells (in words)” value was “significantly reduced”. Further, the “frequency of IL-2 secreting lymph node cells” value in assay [2] was 1753+/−37.7.
